From publication PMC10041525, “New Dual Inhibitors of Bacterial Topoisomerases with Broad-Spectrum Antibacterial Activity and In Vivo Efficacy against Vancomycin-Intermediate Staphylococcus aureus” (Journal of Medicinal Chemistry, 2023)
Converted amounts (≈) assume the structure as drawn. Read-outs that look alike come from different tables or passages of the source.

Key:
[1] = test system: 100 A. baumannii strains (50 MDR, 50 non-MDR); experiment: MIC broth microdilution at IHMA Europe, panel of 100 strains; format: cell-based; conditions: for MIC / MIC50 / MIC90: Acinetobacter baumannii; for MIC50: read-out: MIC 50; for MIC90: read-out: MIC 90
[2] = test system: N. gonorrhoeae ATCC 49226; experiment: IHMA QC MIC; format: cell-based; conditions: Neisseria gonorrhoeae, ATCC49226; QC strain N. gonorrhoeae ATCC 49226, test date 2021-11-18; read-out: MIC
Source text: Supplement jm2c01905_si_004.xlsx, sheet "QC" | column: MIC [µg/mL]

O=C(O)c1cn(C2CC2)c2cc(N3CCNCC3)c(F)cc2c1=O [ciprofloxacin]
MIC ([1]; A. baumannii IHMA 1769393, Lithuania 2018, Non-MDR, read-out: MIC): 0.5 µg/mL (≈ 1.51 µM) | MIC ([1]; A. baumannii IHMA 1769782, Israel 2018, MDR, read-out: MIC): > 16 µg/mL | MIC ([1]; A. baumannii IHMA 1769910, Israel 2018, Non-MDR, read-out: MIC): 1 µg/mL (≈ 3.02 µM) | MIC ([1]; A. baumannii IHMA 1790317, Czech Republic 2018, Non-MDR, read-out: MIC): ≤ 0.06 µg/mL | MIC ([1]; A. baumannii IHMA 1790916, Romania 2018, Non-MDR, read-out: MIC): ≤ 0.06 µg/mL | MIC ([1]; A. baumannii IHMA 1791877, Israel 2018, MDR, read-out: MIC): > 16 µg/mL | MIC ([1]; A. baumannii IHMA 1792961, Jordan 2018, MDR, read-out: MIC): > 16 µg/mL | MIC ([1]; A. baumannii IHMA 1795669, Tunisia 2018, Non-MDR, read-out: MIC): ≤ 0.06 µg/mL | MIC ([1]; A. baumannii IHMA 1814276, Lebanon 2018, MDR, read-out: MIC): > 16 µg/mL | MIC ([1]; A. baumannii IHMA 1815198, Kuwait 2018, MDR, read-out: MIC): > 16 µg/mL | MIC ([1]; A. baumannii IHMA 1815856, Israel 2018, MDR, read-out: MIC): > 16 µg/mL | MIC ([1]; A. baumannii IHMA 1830924, United Kingdom 2018, Non-MDR, read-out: MIC): 0.5 µg/mL (≈ 1.51 µM) | MIC ([1]; A. baumannii IHMA 1849819, Kuwait 2018, MDR, read-out: MIC): > 16 µg/mL | MIC ([1]; A. baumannii IHMA 1849829, Kuwait 2018, Non-MDR, read-out: MIC): ≤ 0.06 µg/mL | MIC ([1]; A. baumannii IHMA 1926285, Qatar 2018, Non-MDR, read-out: MIC): ≤ 0.06 µg/mL | MIC ([1]; A. baumannii IHMA 1926288, Qatar 2018, MDR, read-out: MIC): > 16 µg/mL | MIC ([1]; A. baumannii IHMA 1963732, Turkey 2019, MDR, read-out: MIC): > 16 µg/mL | MIC ([1]; A. baumannii IHMA 1967860, Spain 2019, Non-MDR, read-out: MIC): 1 µg/mL (≈ 3.02 µM) | MIC ([1]; A. baumannii IHMA 1971673, Latvia 2019, MDR, read-out: MIC): > 16 µg/mL | MIC ([1]; A. baumannii IHMA 1983151, Greece 2019, MDR, read-out: MIC): > 16 µg/mL | MIC ([1]; A. baumannii IHMA 1984665, Lithuania 2019, MDR, read-out: MIC): > 16 µg/mL | MIC ([1]; A. baumannii IHMA 1986738, Turkey 2019, MDR, read-out: MIC): > 16 µg/mL | MIC ([1]; A. baumannii IHMA 1987162, Croatia 2019, MDR, read-out: MIC): > 16 µg/mL | MIC ([1]; A. baumannii IHMA 1993615, Turkey 2019, MDR, read-out: MIC): > 16 µg/mL | MIC ([1]; A. baumannii IHMA 1994284, Italy 2019, MDR, read-out: MIC): > 16 µg/mL | MIC ([1]; A. baumannii IHMA 2003279, Turkey 2019, MDR, read-out: MIC): > 16 µg/mL | MIC ([1]; A. baumannii IHMA 2014931, South Africa 2019, Non-MDR, read-out: MIC): 2 µg/mL (≈ 6.04 µM) | MIC ([1]; A. baumannii IHMA 2020360, Croatia 2019, MDR, read-out: MIC): > 16 µg/mL | MIC ([1]; A. baumannii IHMA 2031511, Greece 2019, Non-MDR, read-out: MIC): ≤ 0.06 µg/mL | MIC ([1]; A. baumannii IHMA 2031524, Greece 2019, MDR, read-out: MIC): > 16 µg/mL | MIC ([1]; A. baumannii IHMA 2035089, Serbia 2019, MDR, read-out: MIC): > 16 µg/mL | MIC ([1]; A. baumannii IHMA 2038976, Hungary 2019, MDR, read-out: MIC): > 16 µg/mL | MIC ([1]; A. baumannii IHMA 2051503, Serbia 2019, MDR, read-out: MIC): > 16 µg/mL | MIC ([1]; A. baumannii IHMA 2065587, France 2019, Non-MDR, read-out: MIC): ≤ 0.06 µg/mL | MIC ([1]; A. baumannii IHMA 2129256, Qatar 2019, Non-MDR, read-out: MIC): ≤ 0.06 µg/mL | MIC ([1]; A. baumannii IHMA 2154584, Israel 2020, MDR, read-out: MIC): > 16 µg/mL | MIC ([1]; A. baumannii IHMA 2155340, Kenya 2020, MDR, read-out: MIC): > 16 µg/mL | MIC ([1]; A. baumannii IHMA 2156634, Turkey 2020, MDR, read-out: MIC): > 16 µg/mL | MIC ([1]; A. baumannii IHMA 2156709, Turkey 2020, MDR, read-out: MIC): > 16 µg/mL | MIC ([1]; A. baumannii IHMA 2177232, Lithuania 2020, MDR, read-out: MIC): > 16 µg/mL | MIC ([1]; A. baumannii IHMA 2177489, Lithuania 2020, MDR, read-out: MIC): > 16 µg/mL | MIC ([1]; A. baumannii IHMA 2178574, Ukraine 2020, Non-MDR, read-out: MIC): ≤ 0.06 µg/mL | MIC ([1]; A. baumannii IHMA 2180142, Malaysia 2020, MDR, read-out: MIC): > 16 µg/mL | MIC ([1]; A. baumannii IHMA 2181370, Morocco 2020, MDR, read-out: MIC): > 16 µg/mL | MIC ([1]; A. baumannii IHMA 2183729, Argentina 2020, MDR, read-out: MIC): > 16 µg/mL | MIC ([1]; A. baumannii IHMA 2193375, Venezuela 2020, MDR, read-out: MIC): > 16 µg/mL | MIC ([1]; A. baumannii IHMA 2193485, Venezuela 2020, Non-MDR, read-out: MIC): ≤ 0.06 µg/mL | MIC ([1]; A. baumannii IHMA 2193607, Venezuela 2020, MDR, read-out: MIC): > 16 µg/mL | MIC ([1]; A. baumannii IHMA 2195460, Italy 2020, MDR, read-out: MIC): > 16 µg/mL | MIC ([1]; A. baumannii IHMA 2196914, South Africa 2020, MDR, read-out: MIC): > 16 µg/mL | MIC ([1]; A. baumannii IHMA 2196959, South Africa 2020, MDR, read-out: MIC): > 16 µg/mL | MIC ([1]; A. baumannii IHMA 2203763, Spain 2020, MDR, read-out: MIC): > 16 µg/mL | MIC ([1]; A. baumannii IHMA 2205144, Korea, South 2020, MDR, read-out: MIC): > 16 µg/mL | MIC ([1]; A. baumannii IHMA 2206459, Taiwan 2020, MDR, read-out: MIC): > 16 µg/mL | MIC ([1]; A. baumannii IHMA 2206507, Taiwan 2020, Non-MDR, read-out: MIC): ≤ 0.06 µg/mL | MIC ([1]; A. baumannii IHMA 2216586, Taiwan 2020, MDR, read-out: MIC): > 16 µg/mL | MIC ([1]; A. baumannii IHMA 2224017, Panama 2020, MDR, read-out: MIC): > 16 µg/mL | MIC ([1]; A. baumannii IHMA 2231797, Greece 2020, MDR, read-out: MIC): > 16 µg/mL | MIC ([1]; A. baumannii IHMA 2233099, Guatemala 2020, MDR, read-out: MIC): > 16 µg/mL | MIC ([1]; A. baumannii IHMA 2233430, Kazakhstan 2020, MDR, read-out: MIC): > 16 µg/mL | MIC ([1]; A. baumannii IHMA 2238964, Thailand 2020, MDR, read-out: MIC): > 16 µg/mL | MIC ([1]; A. baumannii IHMA 2261047, Belgium 2020, MDR, read-out: MIC): > 16 µg/mL | MIC ([1]; A. baumannii IHMA 2274234, South Africa 2020, MDR, read-out: MIC): > 16 µg/mL | MIC ([1]; A. baumannii IHMA 2274364, South Africa 2020, MDR, read-out: MIC): > 16 µg/mL | MIC ([1]; A. baumannii IHMA 2275751, Jordan 2020, MDR, read-out: MIC): > 16 µg/mL | MIC ([1]; A. baumannii IHMA 2316205, United States 2020, MDR, read-out: MIC): > 16 µg/mL | MIC ([1]; MDR n = 50, read-out: MAX (maximum MIC; all strains inhibited)): > 16 µg/mL | MIC50 ([1]; MDR n = 50): > 16 µg/mL | MIC90 ([1]; MDR n = 50): > 16 µg/mL | MIC ([1]; MDR n = 50, read-out: MIN (minimum MIC)): > 16 µg/mL | MIC ([1]; all isolates n = 100, read-out: MAX (maximum MIC; all strains inhibited)): > 16 µg/mL | MIC50 ([1]; all isolates n = 100): 2 µg/mL (≈ 6.04 µM) | MIC90 ([1]; all isolates n = 100): > 16 µg/mL | MIC ([1]; all isolates n = 100, read-out: MIN (minimum MIC)): ≤ 0.06 µg/mL | MIC ([1]; non-MDR n = 50, read-out: MAX (maximum MIC)): 2 µg/mL (≈ 6.04 µM) | MIC ([1]; non-MDR n = 50, read-out: MIN (minimum MIC)): ≤ 0.06 µg/mL | Percentage I ([1]; MDR n = 50): 0% | Percentage R ([1]; MDR n = 50): 100% | Percentage S ([1]; MDR n = 50): 0% | Percentage I ([1]; non-MDR n = 50): 2% | Percentage R ([1]; non-MDR n = 50): 0% | Percentage S ([1]; non-MDR n = 50): 98% | MIC [2]: 4 ng/mL (≈ 0.0121 µM)
